From patent US20230270764A1, “COMPOSITION COMPRISING CANNABINOIDS, TERPENES, AND FLAVONOIDS FOR TREATING DEPRESSION” (priority 2020, published 2023)

Tests used:
[1] = system: LPS-injected mice; test: Body weight change and food consumption in the LPS-induced model of depression; type: in vivo
Source text: (§1) Animals were housed 2-3/cage, kept in an air-conditioned room (23+°C) and given ad libitum access to food and water. The mice were kept in a reversed light/dark cycle, with lights off from 7 a.m. to 7 p.m. All experiments were approved by the Hebrew University of Jerusalem Ethics Committee on Animal Care and Use. In preparation for the Sucrose Preference Test, mice were habituated 2-3 times to sucrose drinking, by exposing them overnight to two graduated tubes, one containing water and the other containing sucrose solution (1%, w/v). Water and sucrose consumption were measured, and sucrose preference was computed by dividing the amount of sucrose consumed by drinking (ml sucrose) by the total drinking volume (ml of sucrose + water). One day later, the weight of the mice and the food in their cages was weighed for later analysis of food consumption and body weight changes. Groups of mice were injected intraperitoneally (i.p.) with either vehicle (cremophor, ethanol and PBS, 1:1:18 (v/v/v)) or a cannabinoid-based formulation (by itself or with another cannabinoid, or a terpene or a flavonoid). One hour later, each of these groups was injected with LPS (330 µg/kg). All injections were administered at a dose of 10 ml/kg. Four hours following the LPS injection, mice were tested in the Open-Field Test. In this test, the measured locomotor activity reflects not only motor capacity, but particularly the innate motivation for spatial exploration (which increases the distance travelled) and the anxiety level (which reduces the distance travelled, in general, and particularly the distance and time spent in the center of the open field). Each subject was placed near one of the walls of a white 50 X 50 cm^2 arena with 40 cm high walls. The distance travelled (cm), the velocity of the movement (cm/second), the time spent (seconds), distance travelled (cm) in the center area of the arena, as well as the number of entries from the perimeter area into the center of the arena were automatically measured over a 4-minute period, using EthoVision XT video tracking system and software (Noldus, The Netherlands). Twenty-four hours after the LPS injection, mice were tested in the Social Exploration Test. In this test, the subject was placed in an observation cage containing a small metal wire mesh cage with a conspecific mouse inside it. Social exploration, defined as the time of near contact between the nose of the subject and the juvenile in the small cage was recorded for 4 min, using computerized in-house software. Sucrose preference was assessed, as described above, between 8 to 27 hr post LPS injection. Body weight and weight of the food were measured two hours before the LPS injection, and again after 24 hours, and the change in body weight and food consumption were calculated.
(§2) This particular study was conducted in several experimental cohorts, and not all compounds and all measures were studied in all cohort. However, each cohort included a vehicle-treated group; therefore, the scores in each behavioral test were converted to % of mean vehicle-treated group in every individual cohort/experiment. Statistical comparisons were computed using SPSS software and consisted of one-way analyses of variance (ANOVA), followed by post-hoc comparisons with the Student-Newman-Keuls method.

[2] = system: LPS-injected mice; test: Open field test in the LPS-induced model of depression; type: in vivo; conditions: for distance travelled in the open field compared with vehicle-treated groups: Example 9, 4-6 months-old male C57BL/6, i.p. 1 h before LPS 330 µg/kg, mg/kg: CBD 30, CBDA 1 or 5, CBD 30 plus THC 10, CBD 30 plus BCP 50
Source text: as §1
as §2, with “method. […]” for “method.”

[3] = young adult (2.5-3 months old) male mice, acute CBD

Row | SMILES | food consumption over 24 hr vs vehicle-treated group ([1]; Example 9, male C57BL/6, i.p. 1 h before LPS 330 µg/kg, mg/kg: CBD 30, CBD 30 plus THC 10, cannabinol 10, CBD 30 plus BCP 50) | LPS-induced body weight loss and decrease in food consumption ([1]; adult (6-9 months-old) male mice, acute CBD) | food consumption and body weight ([1]; adult and young adult female mice, acute CBD, saline or LPS) | food consumption among the LPS-injected groups ([1]; adult female mice, acute CBD (#p<0.05)) | LPS-induced decreases in body weight and food consumption [1, 3] | LPS-induced body-weight loss ([1]; young-adult male mice, CBD 30 mg/kg i.p. 3 consecutive days) | distance travelled in the open field compared with vehicle-treated groups [2] | distance travelled in open field vs vehicle-LPS group ([2]; Example 18, 7 months-old male mice, 3 daily i.p. injections, LPS 250 µg/kg, CLX 10 and 20 mg/kg or CBD 30 mg/kg by themselves) | number of entries into the center area vs vehicle-LPS group ([2]; Example 18, CBD 30 mg/kg by itself) | distance moved in the center of the open field vs vehicle-LPS group ([2]; Example 18, celecoxib 10, 20, 30 mg/kg or CBD 30 mg/kg by themselves) | distance travelled in the open field test ([2]; adult (6-9 months-old) and young adult (2.5-3 months old) female mice, acute CBD, saline or LPS) | distance traveled in the open field test, LPS-injected groups ([2]; adult (6-9 months-old) male mice, acute CBD 30 mg/kg) | LPS-induced decrease in distance moved in the open field test [2, 3] | attenuation of LPS effect on distance travelled in the open field test ([2]; young-adult male mice, CBD 30 mg/kg i.p. 3 consecutive days, last 1 hr before LPS 330 µg/kg) | food consumption vs Vehicle-treated LPS-injected mice ([1]; young-adult female mice, CBDA 1 mg/kg) | body weight reduction ([1]; young-adult female mice, CBDA 0.5, 1, 5 mg/kg) | body weight reduction and food consumption ([1]; young-adult male mice, CBDA 1, 5 mg/kg, CBD 25 and CBDA 1 mg/kg) | open field distance vs Vehicle-treated LPS-injected mice ([2]; young-adult female mice, CBDA 5 mg/kg (not 0.5 or 1)) | open-field activity compared with the Veh-treated LPS group ([2]; adult female mice, kaempferol 60 mg/kg by itself or together with CBD 30 mg/kg)
1 | C=C(C)[C@@H]1CCC(C)=C[C@H]1c1c(O)cc(CCCCC)cc1O [CBD, cannabidiol] | consumed significantly more food | not influenced by CBD administration | None of these parameters was influenced by treatment with CBD | significant difference between the CBD- and vehicle-treated group | None of these parameters was influenced by treatment with CBD | no effects | significantly increased distance travelled | did not have significant effects | no significant effects | no significant effects | None of these parameters was influenced by treatment with CBD | significantly attenuated the suppressive effect of LPS | None of these parameters was influenced by treatment with CBD | did not reach statistical significance | – | – | – | – | –
2 | C=C(C)[C@@H]1CCC(C)=C[C@H]1c1c(O)cc(CCCCC)c(C(=O)O)c1O [CBDA, Cannabidiolic acid] | – | – | – | – | – | – | significantly increased distance travelled | – | – | – | – | – | – | – | significantly increased | no significant difference | no significant differences | significantly increased | –
3 | O=c1c(O)c(-c2ccc(O)cc2)oc2cc(O)cc(O)c12 [kaempferol] | – | – | – | – | – | – | – | – | – | – | – | – | – | – | – | – | – | – | significant elevation in open-field activity
